Laboratory results reported in ChEMBL document CHEMBL1208736, “Synthesis of highly functionalized 2,4-diaminoquinazolines as anticancer and anti-HIV agents” (Bioorg Med Chem Lett, 2010).
Values after ≈ are worked out from the molar mass of the structure shown.

How the values were obtained:
A549 = assay: Cytotoxicity against human A549 cells by MTT assay; assay type: functional, cell-based
A-431 = assay: Cytotoxicity against human A431 cells by MTT assay; assay type: functional, cell-based
HepG2 = assay: Cytotoxicity against human HepG2 cells by MTT assay; assay type: functional, cell-based
HL-60 = assay: Cytotoxicity against human HL60 cells by MTT assay; assay type: functional, cell-based
SK-OV-3 = assay: Cytotoxicity against human SKOV3 cells by MTT assay; assay type: functional, cell-based
[1] = Cytotoxicity against human C8166 cells after 3 days by MTT assay; assay type: cell-based
[2] = Therapeutic index, ratio of CC50 for human C8166 cells to EC50 for HIV1 3B; assay type: cell-based; conditions: read-out: Ratio CC50/EC50
[3] = test system: Human immunodeficiency virus 1; assay: Antiviral activity against HIV1 3B infected in human C8166 cells assessed as inhibition of viral replication; assay type: functional, organism-based; conditions: Human immunodeficiency virus 1, 3B

| EC50 [3] | Compound | IC50 (A549) | IC50 (A-431) | IC50 (HepG2) | IC50 (HL-60) | IC50 (SK-OV-3) | CC50 at 72 h [1] | selectivity ratio [2] |
| --- | --- | --- | --- | --- | --- | --- | --- | --- |
| – | N#Cc1c(NCc2ccccc2)c(Cl)c2nc(N)nc(N)c2c1F | 34.1 µg/mL (≈ 99.5 µM) | 1.4 µg/mL (≈ 4.08 µM) | 1.4 µg/mL (≈ 4.08 µM) | 0.3 µg/mL (≈ 0.875 µM) | 0.8 µg/mL (≈ 2.33 µM) | – | – |
| 0.2 µg/mL (≈ 0.64 µM) | N#Cc1c(Nc2ccccc2)c(F)c2nc(N)nc(N)c2c1F | > 1000 µg/mL | 7 µg/mL (≈ 22.4 µM) | 1.4 µg/mL (≈ 4.48 µM) | 40 µg/mL (≈ 128 µM) | 6.5 µg/mL (≈ 20.8 µM) | 6.9 µg/mL (≈ 22.1 µM) | 16.3 |
| – | CC(C)(C)Nc1c(C#N)c(F)c2c(N)nc(N)nc2c1Cl | 313 µg/mL (≈ 1010 µM) | 6.5 µg/mL (≈ 21.1 µM) | 5.4 µg/mL (≈ 17.5 µM) | 5.2 µg/mL (≈ 16.8 µM) | 2.1 µg/mL (≈ 6.8 µM) | – | – |
| – | CCCCNc1c(C#N)c(NCCCC)c2c(N)nc(N)nc2c1Cl | 2 µg/mL (≈ 5.53 µM) | 2.5 µg/mL (≈ 6.91 µM) | 1.3 µg/mL (≈ 3.59 µM) | 0.7 µg/mL (≈ 1.93 µM) | 0.6 µg/mL (≈ 1.66 µM) | – | – |
| – | N#Cc1c(NCc2ccccc2)c(F)c2nc(N)nc(N)c2c1F | > 1000 µg/mL | 12.9 µg/mL (≈ 39.5 µM) | 27.8 µg/mL (≈ 85.2 µM) | 14 µg/mL (≈ 42.9 µM) | 11 µg/mL (≈ 33.7 µM) | – | – |
| – | COc1ccc(Nc2c(C#N)c(F)c3c(N)nc(N)nc3c2Cl)cc1 | 103 µg/mL (≈ 287 µM) | 5.1 µg/mL (≈ 14.2 µM) | 10.2 µg/mL (≈ 28.4 µM) | 2.2 µg/mL (≈ 6.13 µM) | 1.6 µg/mL (≈ 4.46 µM) | – | – |
| – | N#Cc1c(N)c(Cl)c2nc(N)nc(N)c2c1Cl | 188 µg/mL (≈ 699 µM) | 9.5 µg/mL (≈ 35.3 µM) | 3.7 µg/mL (≈ 13.7 µM) | 6.7 µg/mL (≈ 24.9 µM) | 0.8 µg/mL (≈ 2.97 µM) | – | – |
| – | CCCCNc1c(C#N)c(NCCCC)c2c(N)nc(N)nc2c1F | > 1000 µg/mL | 1 µg/mL (≈ 2.89 µM) | 2.6 µg/mL (≈ 7.53 µM) | 1.4 µg/mL (≈ 4.05 µM) | 1.6 µg/mL (≈ 4.63 µM) | – | – |
| 3.2 µg/mL (≈ 7.34 µM) | N#Cc1c(Sc2ccccc2)c(Cl)c2nc(N)nc(N)c2c1Sc1ccccc1 | > 1000 µg/mL | 32.4 µg/mL (≈ 74.3 µM) | 5 µg/mL (≈ 11.5 µM) | 26 µg/mL (≈ 59.6 µM) | 9.4 µg/mL (≈ 21.6 µM) | 46.8 µg/mL (≈ 107 µM) | 10.6 |
| 0.1 µg/mL (≈ 0.391 µM) | N#Cc1c(F)c(Cl)c2nc(N)nc(N)c2c1F | 30.8 µg/mL (≈ 120 µM) | 1.5 µg/mL (≈ 5.87 µM) | 4.8 µg/mL (≈ 18.8 µM) | 0.04 µg/mL (≈ 0.156 µM) | 0.14 µg/mL (≈ 0.548 µM) | 3.9 µg/mL (≈ 15.3 µM) | 7 |
| – | N#Cc1c(NCc2ccccc2)c(F)c2nc(N)nc(N)c2c1NCc1ccccc1 | 13.9 µg/mL (≈ 33.6 µM) | 20.7 µg/mL (≈ 50.1 µM) | 13.4 µg/mL (≈ 32.4 µM) | 7.2 µg/mL (≈ 17.4 µM) | 2.5 µg/mL (≈ 6.05 µM) | – | – |
| 0.4 µg/mL (≈ 1.22 µM) | N#Cc1c(Nc2ccccc2)c(Cl)c2nc(N)nc(N)c2c1F | > 1000 µg/mL | 4.8 µg/mL (≈ 14.6 µM) | 5.9 µg/mL (≈ 17.9 µM) | 47 µg/mL (≈ 143 µM) | 3.7 µg/mL (≈ 11.3 µM) | 6.3 µg/mL (≈ 19.2 µM) | 13.5 |
| – | N#Cc1c(Nc2ccc(Cl)cc2)c(F)c2nc(N)nc(N)c2c1F | 115 µg/mL (≈ 332 µM) | 4.5 µg/mL (≈ 13 µM) | 1 µg/mL (≈ 2.88 µM) | 35 µg/mL (≈ 101 µM) | 4.8 µg/mL (≈ 13.8 µM) | – | – |
| – | N#Cc1c(NCc2ccccc2)c(Cl)c2nc(N)nc(N)c2c1NCc1ccccc1 | > 1000 µg/mL | 716 µg/mL (≈ 1670 µM) | 19.2 µg/mL (≈ 44.7 µM) | 8.5 µg/mL (≈ 19.8 µM) | 3.7 µg/mL (≈ 8.61 µM) | – | – |
| 0.6 µg/mL (≈ 2.51 µM) | N#Cc1c(F)c(F)c2nc(N)nc(N)c2c1F | > 1000 µg/mL | 105 µg/mL (≈ 439 µM) | 5 µg/mL (≈ 20.9 µM) | 51 µg/mL (≈ 213 µM) | 8 µg/mL (≈ 33.5 µM) | 36.4 µg/mL (≈ 152 µM) | 59.6 |
| 13.3 µg/mL (≈ 36.1 µM) | CCCSc1c(C#N)c(SCCC)c2c(N)nc(N)nc2c1Cl | > 1000 µg/mL | 535 µg/mL (≈ 1450 µM) | > 1000 µg/mL | 7.7 µg/mL (≈ 20.9 µM) | 1.2 µg/mL (≈ 3.26 µM) | > 200 µg/mL | 11.5 |
| – | CCN(CC)c1c(C#N)c(F)c2c(N)nc(N)nc2c1Cl | 7.1 µg/mL (≈ 23 µM) | 7.3 µg/mL (≈ 23.6 µM) | 2 µg/mL (≈ 6.48 µM) | 2.3 µg/mL (≈ 7.45 µM) | 0.4 µg/mL (≈ 1.3 µM) | – | – |
| – | CCN(CC)c1c(C#N)c(F)c2c(N)nc(N)nc2c1F | 26.5 µg/mL (≈ 90.7 µM) | 16.4 µg/mL (≈ 56.1 µM) | 1.3 µg/mL (≈ 4.45 µM) | 6.4 µg/mL (≈ 21.9 µM) | 1 µg/mL (≈ 3.42 µM) | – | – |
| – | N#Cc1c(Oc2ccccc2)c(Cl)c2nc(N)nc(N)c2c1Oc1ccccc1 | > 1000 µg/mL | > 1000 µg/mL | > 1000 µg/mL | 88 µg/mL (≈ 218 µM) | 14 µg/mL (≈ 34.7 µM) | – | – |
| – | N#Cc1c(OCc2ccccc2)c(F)c2nc(N)nc(N)c2c1OCc1ccccc1 | > 1000 µg/mL | 68.3 µg/mL (≈ 164 µM) | 84 µg/mL (≈ 202 µM) | 62 µg/mL (≈ 149 µM) | 14 µg/mL (≈ 33.7 µM) | – | – |
| 1 µg/mL (≈ 3.47 µM) | N#Cc1c(Cl)c(Cl)c2nc(N)nc(N)c2c1Cl | 29.7 µg/mL (≈ 103 µM) | 3.3 µg/mL (≈ 11.4 µM) | 2.5 µg/mL (≈ 8.66 µM) | 19 µg/mL (≈ 65.9 µM) | 1.3 µg/mL (≈ 4.51 µM) | 14.3 µg/mL (≈ 49.6 µM) | 8 |
| – | CC(C)(C)Nc1c(C#N)c(F)c2c(N)nc(N)nc2c1F | > 1000 µg/mL | 11.9 µg/mL (≈ 40.7 µM) | 16.2 µg/mL (≈ 55.4 µM) | 18 µg/mL (≈ 61.6 µM) | 2.4 µg/mL (≈ 8.21 µM) | – | – |
| 0.004 µg/mL (≈ 0.015 µM) | Cc1cn([C@H]2C[C@H](N=[N+]=[N-])[C@@H](CO)O2)c(=O)[nH]c1=O [ZIDOVUDINE] | – | – | – | – | – | – | 286000 |
